According to patent US10168338B2, “Methods of identifying modulators of sestrin-gator-2 interaction for modulating mTORC1 activity” (Whitehead Institute for Biomedical Research, priority 2014, dated 2019):

Experiments:
Sestrin2-GATOR2 complex = biological target: T1, Sestrin2-GATOR2 complex (Homo sapiens, UniProt P58004); test: Amino acids added directly to immunopurified Sestrin2-GATOR2 complexes (immunoblot); assay type: binding
T1 construct: To isolate the FLAG-WDR24/endogenous-Sestrin2 complex; endogenous in cells; host or cells: HEK-293T cells stably expressing FLAG-WDR24; Sestrin2 and the other GATOR2 subunits are endogenous
T1 sequence (P58004 1-480): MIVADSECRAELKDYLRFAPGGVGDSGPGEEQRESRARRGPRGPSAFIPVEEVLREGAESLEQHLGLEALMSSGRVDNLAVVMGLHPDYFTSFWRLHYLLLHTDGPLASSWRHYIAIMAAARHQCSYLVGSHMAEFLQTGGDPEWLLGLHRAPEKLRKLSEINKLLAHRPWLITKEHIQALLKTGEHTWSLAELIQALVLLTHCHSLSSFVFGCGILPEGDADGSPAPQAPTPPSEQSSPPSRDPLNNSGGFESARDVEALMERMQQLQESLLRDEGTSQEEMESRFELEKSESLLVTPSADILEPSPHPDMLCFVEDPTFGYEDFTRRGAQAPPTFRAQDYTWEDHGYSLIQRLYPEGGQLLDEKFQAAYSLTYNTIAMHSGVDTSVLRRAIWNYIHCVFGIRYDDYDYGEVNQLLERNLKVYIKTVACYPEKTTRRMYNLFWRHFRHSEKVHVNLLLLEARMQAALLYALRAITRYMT
Method: We next tested if leucine acts directly on the Sestrin2-GATOR2 complex.
HEK-293T cells stably expressing FLAG-WDR24 were starved for all amino acids for 50 minutes, lysed and subjected to anti-FLAG immunoprecipitation as described previously. The GATOR2-Sestrin2 complexes immobilized on the agarose beads were washed twice in lysis buffer with 500 mM NaCl, as previously described, and then incubated for 10 minutes in 1 mL of cytosolic buffer with the indicated concentrations of individual amino acids. The amount of GATOR2 and Sestrin2 that remained bound was assayed by SDS-PAGE and immunoblotting as described previously.

[1] = biological target: T2, GATOR2-Sestrin2 interaction (Homo sapiens, UniProt P58004); test: Sestrin2-GATOR2 interaction in HEK-293T cells after starvation/restimulation (co-immunoprecipitation); assay type: cell-based
T2 construct: To isolate the FLAG-WDR24/endogenous-Sestrin2 complex; endogenous in cells; host or cells: HEK-293T cells stably expressing FLAG-WDR24; Sestrin2 and the other GATOR2 subunits are endogenous
T2 sequence (P58004 1-480): T1 sequence (P58004 1-480)
Method: (§1) In order to determine the effect of amino acids on the GATOR2-Sestrin interaction, transfected cells were incubated in amino acid free RPMI for 50 minutes and then stimulated with amino acids for 10 minutes. For glucose starvation, cells were incubated in RPMI media lacking glucose but containing amino acids and dialyzed serum for 50 minutes, followed by a 10 minute restimulation with 5 mM D-Glucose. For insulin deprivation, cells were incubated in RPMI without serum for 50 minutes and restimulated with 1 μg/ml insulin for 10 minutes. Finally, when Torin1 or Rapamycin was used, cells were incubated with 250 nM of each throughout the starvation and restimulation period.
HEK-293T cells stably expressing FLAG-WDR24 or the control protein FLAG-metap2 (as described in Example 1) were starved for leucine, arginine, or all amino acids for 50 minutes. In some samples, cells were re-stimulated with leucine, arginine, or all amino acids for 10 minutes and then FLAG immunoprecipitates prepared from cell lysates. Immunoprecipitates and lysates were analyzed by immunoblotting for indicated proteins. Removal of either leucine or arginine from the cell media inhibited mTORC1 signaling, as indicated by S6K1 phosphorylation, to similar extents. Strikingly, however, only leucine starvation caused Sestrin2 to bind to GATOR2 inducing the interaction as effectively as complete amino acid starvation (FIG. 9A). […] Leucine starvation and stimulation also strongly regulated the interaction of endogenous Sestrin1, but not endogenous Sestrin3, with GATOR2 (Figure not shown).

mTORC1 = mTORC1 signaling in HEK-293T cells (S6K1 phosphorylation immunoblot); assay type: cell-based, human; conditions: Homo sapiens; HEK-293T starved of leucine 50 minutes, restimulated 10 minutes; read-out: half-maximal effect on mTORC1 activity in cells
Method: Immunoprecipitated proteins were denatured by the addition of 50 μl of sample buffer and boiling for 5 minutes as described (Kim et al., 2002), resolved by 8%-16% SDS-PAGE, and analyzed by immunoblotting using the appropriate antibody (antibodies to phospho-T389 S6K1, S6K1, Sestrin2, mTOR, Mios and FLAG all obtained from Cell Signaling Technology; antibodies to WDR24 and WDR59 were generously provided by Jianxin Xie at Cell Signaling Technology).
as §1

**Q.** `CC(C)C[C@H](N)C(=O)O` [leucine] was tested. Which “effect on the Sestrin2-GATOR2 interaction in vitro” value (Sestrin2-GATOR2 complex; 300 μM each, added directly to FLAG immunoprecipitates) did it give?
**A.** disrupted the interaction

**Q.** What about the EC50 (Sestrin2-GATOR2 complex; added to purified complexes from amino acid-starved cells, equilibrium not attained, relative potency only, read-out: half maximal effect on disruption of the Sestrin2-GATOR2 complex) of the same compound?
**A.** ~1 µM

**Q.** And the EC50 ([1]; HEK-293T starved of leucine 50 minutes, restimulated 10 minutes, read-out: half-maximal effect on the Sestrin2-GATOR2 interaction in cells)?
**A.** 20 to 40 µM

**Q.** What about the “effect of re-addition on Sestrin2 binding to GATOR2 in cells” value ([1]; starved 50 minutes, re-stimulated 10 minutes) of the same compound?
**A.** rapidly reversed the binding

**Q.** And the EC50 (mTORC1)?
**A.** 20 to 40 µM
